In general, pEC50 refers to the EC50 on a negative log10 scale, so that one unit is a factor of ten.

pEC50: −log10 of the molar value.

From patent publication US20260356841A1, “HETEROCYCLIC PYRIDINONE COMPOUNDS AS TRIGGERING RECEPTOR EXPRESSED ON MYELOID CELLS 2 AGONISTS AND METHODS OF USE” (Vigil Neuroscience, Inc., priority 2023, published 2026) come the findings set out here.

T1 sequence (Q9NZC2 19-230): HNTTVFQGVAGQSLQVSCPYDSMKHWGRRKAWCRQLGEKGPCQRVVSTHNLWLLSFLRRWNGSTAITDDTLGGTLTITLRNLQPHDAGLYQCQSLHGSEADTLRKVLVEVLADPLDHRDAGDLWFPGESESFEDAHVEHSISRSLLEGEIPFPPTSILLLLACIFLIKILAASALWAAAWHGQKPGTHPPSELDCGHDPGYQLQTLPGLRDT
T1 sequence (O43914 22-113 partner): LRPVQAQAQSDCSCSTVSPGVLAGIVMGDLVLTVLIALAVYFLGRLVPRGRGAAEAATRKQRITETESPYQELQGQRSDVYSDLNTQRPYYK

The assay concerns the target T1, human TREM2 (Homo sapiens, UniProt Q9NZC2).
T1 construct: expressed in transfected cells; host or cells: HEK293T (HEK293T-hTREM2 cells)
In words: TREM2 agonist potency by cellular phosphorylation of Spleen Tyrosine Kinase (Syk), AlphaLisa, HEK293T-hTREM2 cells. It counts as cell-based. The note with it: hTREM2 EC50 Data (HEK293 Cells); Syk phosphorylation, AlphaLisa; read-out: hTREM2 EC50. The gist of the method:
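HEK293T cells co-expressing human TREM2 and DAP12, plated 20–24 h before use. Compounds applied 45 min at room temperature in assay buffer, then cells lysed and phospho-Syk quantified by AlphaLisa. Percent activation from a standard curve; EC50 from a four-parameter variable-slope fit.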
(In Alpha technology, singlet oxygen from a donor bead excites a nearby acceptor bead.)
Turning to `Cc1nc2nc([C@H]3CCO[C@@H](c4ccc(=O)n(N5CCCC5)c4)C3)nc(C34CC(C(F)(F)F)(C3)C4)c2nc1C` [Example 209, 5-[(2R,4S)-4-[6,7-dimethyl-4-[3-(trifluoromethyl)-1-bicyclo[1.1.1]pentanyl]pteridin-2-yl]tetrahydropyran-2-yl]-1-pyrrolidin-1-yl-pyridin-2-one], the pEC50 was over 7.00.

`Cc1nc2cc(C3CCO[C@@H](c4ccc(=O)n(C)c4)C3)nc(-c3ccc(F)cc3F)c2nc1C` (some centres unmarked) [Example 194, 5-(4-(5-(2,4-difluorophenyl)-2,3-dimethylpyrido[3,4-b]pyrazin-7-yl)tetrahydro-2H-pyran-2-yl)-1-methylpyridin-2 (1H)-one]: the pEC50 is 6.30 to 7.00.

Turning to `Cc1nc2nc([C@H]3CCO[C@@H](c4ccc(=O)n(CCO)c4)C3)nc(C34CC(C(F)(F)F)(C3)C4)c2nc1C` [Example 84, 5-[(2R,4S)-4-[6,7-dimethyl-4-[3-(trifluoromethyl)-1-bicyclo[1.1.1]pentanyl]pteridin-2-yl]tetrahydropyran-2-yl]-1-(2-hydroxyethyl)pyridin-2-one], the pEC50 was over 7.00.

`Cc1nc2nc([C@H]3CCO[C@@H](c4ccc(=O)n(C)c4)C3)nc(C34CC(C(C)(C)F)(C3)C4)c2nc1C` [Example 52, 5-[(2R,4S)-4-[4-[3-(1-fluoro-1-methyl-ethyl)-1-bicyclo[1.1.1]pentanyl]-6,7-dimethyl-pteridin-2-yl]tetrahydropyran-2-yl]-1-methyl-pyridin-2-one]: the pEC50 is over 7.00.

Turning to `[2H]C([2H])([2H])c1nc2nc([C@H]3CCO[C@@H](c4ccc(=O)n(C5CC5)c4)C3)nc(C34CC(C(F)(F)F)(C3)C4)c2nc1C([2H])([2H])[2H]` [Example 201, 5-((2R,4S)-4-(6,7-bis(methyl-d3)-4-(3-(trifluoromethyl)bicyclo[1.1.1]pentan-1-yl)pteridin-2-yl)tetrahydro-2H-pyran-2-yl)-1-cyclopropylpyridin-2 (1H)-one], the pEC50 is over 7.00.

`Cc1nc2nc([C@@H]3CCO[C@H](c4ccc(=O)n(C(C)C)c4)C3)nc(-c3ccc(C(F)(F)F)cc3F)c2nc1C` [Example 69, 1-isopropyl-5-[(2S,4R)-4-[4-[2-fluoro-4-(trifluoromethyl)-phenyl]-6,7-dimethyl-pteridin-2-yl]tetrahydropyran-2-yl]pyridin-2-one]: the pEC50 is over 7.00.

On to `Cc1nc2nc([C@H]3CCO[C@@H](c4ccc(=O)n(C)c4)C3)nc(C34CC(CC(F)(F)F)(C3)C4)c2nc1C` [Example 54, 5-[(2R,4S)-4-[6,7-dimethyl-4-[3-(2,2,2-trifluoroethyl)-1-bicyclo[1.1.1]pentanyl]pteridin-2-yl]tetrahydro-2H-pyran-2-yl]-1-methyl-pyridin-2(1H)-one], for which the pEC50 is over 7.00.

With `CN(C)c1nc2c(C34CC(C(F)(F)F)(C3)C4)nc([C@H]3CCO[C@@H](c4ccc(=O)n(C)c4)C3)nc2n1C` [Example 188], the pEC50 is under 6.30.

On to `Cc1nc2c(C34CC(C(F)(F)F)(C3)C4)nc([C@H]3CCO[C@@H](c4ccc(=O)n(C)c4)C3)nc2nc1C1CC1` [Example 155, 1-methyl-5-[(2R,4S)-4-[7-cyclopropyl-6-methyl-4-[3-(trifluoro-methyl)-1-bicyclo[1.1.1]pentanyl]-pteridin-2-yl]tetrahydropyran-2-yl]pyridin-2-one], for which the pEC50 is over 7.00.

Consider `Cc1nc2nc([C@H]3CCO[C@@H](c4ccc(=O)n(C(C)C)c4)C3)nc(C34CC(C(F)(F)F)(C3)C4)c2nc1C` [Example 77, 1-isopropyl-5-[(2R,4S)-4-[6,7-dimethyl-4-[3-(trifluoromethyl)-1-bicyclo[1.1.1]-pentanyl]pteridin-2-yl]tetrahydropyran-2-yl]pyridin-2-one], for which the pEC50 is over 7.00.

On to `CCNn1cc([C@H]2C[C@@H](c3nc(C45CC(C(F)(F)F)(C4)C5)c4nc(C)c(C)nc4n3)CCO2)ccc1=O` [Example 181, 5-[(2R,4S)-4-[6,7-dimethyl-4-[3-(trifluoromethyl)-1-bicyclo[1.1.1]pentanyl]pteridin-2-yl]tetrahydropyran-2-yl]-1-(ethylamino)pyridin-2-one], for which the pEC50 was over 7.00.

In the case of `Cc1cnc2c(C34CC(C(F)(F)F)(C3)C4)nc([C@@H]3CCO[C@H](c4ccc(=O)n(C)c4)C3)nc2n1` [Example 124, 1-methyl-5-((2S,4R)-4-(7-methyl-4-(3-(trifluoromethyl)bicyclo[1.1.1]pentan-1-yl)pteridin-2-yl)tetrahydro-2H-pyran-2-yl)pyridin-2(1H)-one], the pEC50 is 6.30 to 7.00.

As for `Cc1nc2nc([C@H]3CCO[C@H](c4cnc(=O)n(C)c4)C3)nc(C34CC(C(F)(F)F)(C3)C4)c2nc1C` [Example 163, 1-methyl-5-[(2S,4S)-4-[6,7-dimethyl-4-[3-(trifluoromethyl)-1-bicyclo[1.1.1]pentanyl]pteridin-2-yl]tetrahydropyran-2-yl]pyrimidin-2-one], the pEC50 was over 7.00.

For the compound `Cc1nc2nc([C@H]3CCO[C@@H](c4ccc(=O)n(C)c4)C3)nc(-c3ccc(F)cc3F)c2nc1C` [Example 1, 1-methyl-5-[(2R,4S)-4-[4-(2,4-difluorophenyl)-6,7-dimethyl-pteridin-2-yl]tetrahydropyran-2-yl]pyridin-2-one], the pEC50 is over 7.00.

Regarding `Cc1cnc2nc([C@H]3CCO[C@@H](c4ccc(=O)n(C)c4)C3)nc(C34CC(C(F)(F)F)(C3)C4)c2n1` [Example 198, 1-methyl-5-((2R,4S)-4-(6-methyl-4-(3-(trifluoromethyl)bicyclo[1.1.1]pentan-1-yl)pteridin-2-yl)tetrahydro-2H-pyran-2-yl)pyridin-2(1H)-one], the pEC50 is 6.30 to 7.00.

On to `Cc1nc2nc([C@H]3CCO[C@@H](c4ccc(=O)n(C56CC(C5)C6)c4)C3)nc(C34CC(C(F)(F)F)(C3)C4)c2nc1C` [Example 120, 1-(1-bicyclo[1.1.1]pentanyl)-5-[(2R,4S)-4-[6,7-dimethyl-4-[3-(trifluoromethyl)-1-bicyclo-[1.1.1]pentanyl]pteridin-2-yl]tetrahydropyran-2-yl]pyridin-2-one], for which the pEC50 is over 7.00.

For the compound `CN(C)c1nc2nc([C@@H]3CCO[C@H](c4ccc(=O)n(C)c4)C3)nc(-c3ccc(F)cc3F)c2s1` [Example 14, 5-[(2S,4R)-4-[7-(2,4-difluorophenyl)-2-(dimethylamino)thiazolo[4,5-d]pyrimidin-5-yl]tetrahydropyran-2-yl]-1-methyl-pyridin-2-one], the pEC50 is over 7.00.

In the case of `Cc1nc2nc([C@H]3CCO[C@@H](c4cnc(=O)n(C)c4)C3)nc(C34CC(C(F)(F)F)(C3)C4)c2nc1C` [Example 161], the pEC50 was over 7.00.

`C=CCNn1cc([C@H]2C[C@@H](c3nc(C45CC(C(F)(F)F)(C4)C5)c4nc(C)c(C)nc4n3)CCO2)ccc1=O` [Example 207, 1-(allylamino)-5-[(2R,4S)-4-[6,7-dimethyl-4-[3-(trifluoromethyl)-1-bicyclo[1.1.1]pentanyl]pteridin-2-yl]tetrahydropyran-2-yl]pyridin-2-one]: the pEC50 is over 7.00.

In the case of `Cc1nc2nc(N3C[C@@H](C)O[C@@H](c4ccc(=O)n(C)c4)C3)nc(-c3cnc(C4CC4)s3)c2nc1C` [Example 21, 5-[(2S,6R)-4-[4-(2-cyclopropylthiazol-5-yl)-6,7-dimethyl-pteridin-2-yl]-6-methyl-morpholin-2-yl]-1-methyl-pyridin-2-one], the pEC50 is over 7.00.
